According to PMC6358863, “Involvement of the Hydroperoxy Group in the Irreversible Inhibition of Leukocyte-Type 12-Lipoxygenase by Monoterpene Glycosides Contained in the Qing Shan Lu Shui Tea” (Molecules, 2019):

Key:
15-lipoxygenase = target: T1, 15-lipoxygenase (Homo sapiens, UniProt P16050); assay: 15-lipoxygenase inhibition assay; format: biochemical; conditions: 25 μM arachidonic acid, 30 °C, 5 min
T1 sequence (P16050 1-662): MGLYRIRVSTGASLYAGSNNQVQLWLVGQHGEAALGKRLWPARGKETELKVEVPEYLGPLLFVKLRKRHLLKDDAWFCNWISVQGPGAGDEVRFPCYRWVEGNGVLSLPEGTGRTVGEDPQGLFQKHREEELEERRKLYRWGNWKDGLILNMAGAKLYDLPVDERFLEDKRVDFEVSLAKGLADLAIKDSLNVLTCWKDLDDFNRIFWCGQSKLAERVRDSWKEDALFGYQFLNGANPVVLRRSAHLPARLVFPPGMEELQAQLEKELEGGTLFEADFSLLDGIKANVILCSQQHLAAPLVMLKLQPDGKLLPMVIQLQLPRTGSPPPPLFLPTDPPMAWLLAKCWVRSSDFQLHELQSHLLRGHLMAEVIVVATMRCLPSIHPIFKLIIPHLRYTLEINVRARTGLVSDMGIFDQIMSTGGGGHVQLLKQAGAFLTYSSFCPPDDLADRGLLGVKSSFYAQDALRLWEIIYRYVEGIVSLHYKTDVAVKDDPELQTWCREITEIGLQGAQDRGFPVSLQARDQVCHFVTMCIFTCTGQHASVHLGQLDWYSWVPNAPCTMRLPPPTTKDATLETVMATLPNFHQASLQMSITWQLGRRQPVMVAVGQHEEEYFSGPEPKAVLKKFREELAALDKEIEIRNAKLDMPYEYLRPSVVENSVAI
Method: (§1) Figure 6 Inhibition of various lipoxygenase and cyclooxygenase activities by liguroside A. Reactions were carried out under the standard conditions in the presence of liguroside A at various concentrations and the products were quantified, using a reverse-phase HPLC. Relative enzyme activities of the 15-lipoxygenase-1 (closed circles), platelet-type 12-lipoxygenase (open circles), 5-lipoxygenase (open lozenges), cyclooxygenase-1 (open triangles), and cyclooxygenase-2 (closed triangles), as compared to the activity without inhibitors, are shown.
(§2) The lipoxygenase and cyclooxygenase reactions were carried out, as described previously. […] The products extracted with ice-cold diethyl ether were analyzed by a reverse-phase HPLC, using a Waters Alliance system equipped with a COSMOSIL 5C18-MS-II column (5-μm particle, 250 × 4.6 mm i.d., Nacalai), with a solvent system of methanol-water-acetic acid (80:20:0.01, v/v), at a flow rate of 1 mL/min, as previously described. Absorption at 235 nm was continuously monitored, using a Waters 2489 UV/Visible detector (Waters, Milford, MA, USA). Protein concentration was determined using a bicinchoninic acid protein assay kit (Thermo Fisher Scientific, Waltham, MA, USA), with bovine serum albumin as a standard.

cyclooxygenase-1 = cyclooxygenase-1 (Homo sapiens, UniProt P23219); assay: cyclooxygenase-1 inhibition assay; format: biochemical; conditions: 25 μM linoleic acid, 24 °C, 5 min
Sequence of cyclooxygenase-1 (P23219 24-599, species assumed): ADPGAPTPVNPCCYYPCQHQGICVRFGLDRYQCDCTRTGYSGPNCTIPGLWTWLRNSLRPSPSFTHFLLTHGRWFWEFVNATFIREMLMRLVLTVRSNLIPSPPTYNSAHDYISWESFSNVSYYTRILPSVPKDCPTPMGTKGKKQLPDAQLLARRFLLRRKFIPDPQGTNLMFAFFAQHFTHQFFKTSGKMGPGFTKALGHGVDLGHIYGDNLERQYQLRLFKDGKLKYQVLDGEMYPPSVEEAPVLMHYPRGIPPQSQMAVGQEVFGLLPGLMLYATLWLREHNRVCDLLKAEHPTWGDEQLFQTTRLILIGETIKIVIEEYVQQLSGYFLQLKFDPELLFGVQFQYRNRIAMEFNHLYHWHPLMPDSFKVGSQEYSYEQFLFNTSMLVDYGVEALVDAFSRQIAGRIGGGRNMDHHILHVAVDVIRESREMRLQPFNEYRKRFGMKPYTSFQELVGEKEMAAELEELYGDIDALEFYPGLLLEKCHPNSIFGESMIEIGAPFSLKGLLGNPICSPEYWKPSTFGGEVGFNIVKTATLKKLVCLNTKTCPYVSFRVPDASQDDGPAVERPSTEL
Method: as §1, §2

cyclooxygenase-2 = target: T2, cyclooxygenase-2 (Homo sapiens, UniProt P35354); assay: cyclooxygenase-2 inhibition assay; format: biochemical; conditions: 25 μM linoleic acid, 24 °C, 5 min
T2 sequence (P35354 18-604): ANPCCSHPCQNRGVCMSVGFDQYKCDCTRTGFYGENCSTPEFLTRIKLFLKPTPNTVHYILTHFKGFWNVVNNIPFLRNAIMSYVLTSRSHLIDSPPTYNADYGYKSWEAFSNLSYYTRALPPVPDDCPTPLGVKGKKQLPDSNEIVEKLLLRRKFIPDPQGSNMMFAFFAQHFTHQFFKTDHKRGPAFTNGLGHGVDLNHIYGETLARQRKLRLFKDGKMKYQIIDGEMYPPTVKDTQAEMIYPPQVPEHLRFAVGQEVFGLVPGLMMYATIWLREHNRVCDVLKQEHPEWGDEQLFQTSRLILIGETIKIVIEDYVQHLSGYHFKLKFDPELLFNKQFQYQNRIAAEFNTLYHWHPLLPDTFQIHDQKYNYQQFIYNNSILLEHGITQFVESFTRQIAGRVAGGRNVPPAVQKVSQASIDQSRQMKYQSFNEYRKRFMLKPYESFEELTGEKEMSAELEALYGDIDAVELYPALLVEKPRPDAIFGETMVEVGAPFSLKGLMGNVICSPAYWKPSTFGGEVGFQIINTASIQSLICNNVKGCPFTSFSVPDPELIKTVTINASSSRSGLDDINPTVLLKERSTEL
Method: as §1, §2

[1] = target: T3, platelet-type 12-lipoxygenase (Homo sapiens, UniProt P18054); assay: platelet-type 12-lipoxygenase inhibition assay; format: biochemical; conditions: up to 100 μM; 30 min at 37 °C
T3 sequence (P18054 1-663): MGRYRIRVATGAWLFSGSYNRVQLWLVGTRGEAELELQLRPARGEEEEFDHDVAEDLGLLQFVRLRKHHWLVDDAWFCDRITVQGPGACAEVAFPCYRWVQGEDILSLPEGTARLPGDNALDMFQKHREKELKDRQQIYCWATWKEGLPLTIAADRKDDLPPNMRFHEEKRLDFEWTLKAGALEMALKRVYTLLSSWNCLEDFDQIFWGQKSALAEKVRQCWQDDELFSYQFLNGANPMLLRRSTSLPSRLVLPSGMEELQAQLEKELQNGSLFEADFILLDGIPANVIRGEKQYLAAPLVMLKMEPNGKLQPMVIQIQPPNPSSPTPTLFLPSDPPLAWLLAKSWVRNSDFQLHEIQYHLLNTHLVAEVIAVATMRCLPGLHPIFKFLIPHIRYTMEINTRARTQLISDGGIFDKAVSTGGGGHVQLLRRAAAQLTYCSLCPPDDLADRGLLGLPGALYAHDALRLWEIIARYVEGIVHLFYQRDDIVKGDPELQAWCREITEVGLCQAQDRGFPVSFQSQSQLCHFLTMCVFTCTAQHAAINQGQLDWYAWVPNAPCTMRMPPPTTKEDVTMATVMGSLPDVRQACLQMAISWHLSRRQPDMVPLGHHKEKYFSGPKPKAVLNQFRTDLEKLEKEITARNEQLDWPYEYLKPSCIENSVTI
Method: as §1, §2

[2] = target: T4, leukocyte-type 12-lipoxygenase (Mus musculus, UniProt P39654); design: method as in PMID 23579993; conditions: previous report; read-out: IC50, inhibition of leukocyte-type 12-lipoxygenase activity; cited from earlier work
T4 sequence (P39654 1-663): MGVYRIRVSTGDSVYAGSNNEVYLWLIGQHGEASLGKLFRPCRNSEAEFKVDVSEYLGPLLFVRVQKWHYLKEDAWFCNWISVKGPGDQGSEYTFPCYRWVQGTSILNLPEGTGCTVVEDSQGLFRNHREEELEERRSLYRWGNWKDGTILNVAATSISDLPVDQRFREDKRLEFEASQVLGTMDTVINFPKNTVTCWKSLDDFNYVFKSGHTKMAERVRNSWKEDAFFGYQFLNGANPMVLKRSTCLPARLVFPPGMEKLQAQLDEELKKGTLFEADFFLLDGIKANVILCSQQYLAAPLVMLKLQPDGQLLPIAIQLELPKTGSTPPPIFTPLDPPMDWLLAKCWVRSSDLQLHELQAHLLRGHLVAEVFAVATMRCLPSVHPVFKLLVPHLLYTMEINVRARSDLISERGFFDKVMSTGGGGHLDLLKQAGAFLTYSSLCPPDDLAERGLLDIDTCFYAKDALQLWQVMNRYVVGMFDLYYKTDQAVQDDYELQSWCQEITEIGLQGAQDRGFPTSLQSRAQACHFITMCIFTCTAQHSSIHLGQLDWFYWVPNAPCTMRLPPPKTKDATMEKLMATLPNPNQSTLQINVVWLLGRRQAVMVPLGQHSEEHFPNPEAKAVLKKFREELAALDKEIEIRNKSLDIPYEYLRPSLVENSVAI

- IC50 (15-lipoxygenase): 3.2 µM
- IC50 (cyclooxygenase-1): 21.5 µM
- IC50 (cyclooxygenase-2): 16.9 µM
- effect on platelet-type 12-lipoxygenase activity (in words) [1]: almost unaffected
Compound: C/C(=C\CO[C@@H]1O[C@H](CO)[C@@H](OC(=O)/C=C/c2ccc(O)cc2)[C@H](O[C@@H]2O[C@@H](C)[C@H](O)[C@@H](O)[C@H]2O)[C@H]1O)C/C=C/C(C)(C)OO [liguroside A]
- IC50 [2]: 1.7 µM
